Source: ChEMBL document CHEMBL1147193, “New 5-substituted thiazolo[3,2-b][1,2,4]triazol-6-ones: synthesis and anticancer evaluation” (2007)

Experiments:
Assay type in all cases: functional
[1] = test system: NCI-H460; test: Anticancer activity against human NCI-H460 cells assessed as growth of cells at 100 uM relative to untreated cells
[2] = test system: SF-268; test: Anticancer activity against human SF268 cells assessed as growth of cells at 100 uM relative to untreated cells
[3] = test system: MCF7; test: Anticancer activity against human MCF7 cells assessed as growth of cells at 100 uM relative to untreated cells

O=c1/c(=C/C=C\c2ccccc2)sc2ncnn12 gave an Activity [1] of 95%, an Activity [2] of 128% and an Activity [3] of 138%.
